# According to US5696229A, “Polypeptide with laminin cell adhesion and morphogenesis activity” (The University of Virginia Patent Foundation, priority 1995, dated 1997):
# Peptide text beside a SMILES is read from it.
# Experiments:
# [1] = test system: type II alveolar cells; format: cell-based, rat; settings: for Area: Table II, laminin A chain synthetic peptide preincubated with cells before plating on BMS, None = 108 ± 23; for Inhibition of alveolar formation by soluble laminin fragment or peptide: preincubated with cells prior to plating on BMS, day five; for Area (of cellular structures): cells plated on 1.8 mg/cm^2 gelled protein substrate, 5 d, mean ± SD, alveoli defined as > 20 × 10^3 um^2; for Alveolar formation on substrate: cells plated on equal milligram amounts of gelled substrate
# Excerpt: Type II alveolar cells were isolated from 250-g Sprague Dawley rats (Hilltop Laboratory Animals, Inc.) according to the method of Rannels (Rannels and Rannels, 1988). Briefly, an initial cardiac perfusion with 0.9% saline was followed by instillation of the airways with 0.1% elastase (Calbiochem Corp., La Jolla, Calif.) in Joklik's modified minimal medium (JMEM) containing 0.05% BaSO4. Elastase was inactivated by instillation of JMEM containing soybean trypsin inhibitor (0.08%; Sigma Chemical Co., St. Louis, Mo.), DNase (0.08%. Sigman Chemical Co.), and 50% newborn calf serum (GIBCO BRL, Gaithersburg, Md.). Lung tissue was minced, vortexed, and filtered through 160-μm nylon mesh (Tetko, Elmsford, N.Y.). Released cells were centrifuged for 10 min at 500 g, resuspended in JMEM containing 0.08% DNAse, and layered on a Percoll (Pharmacia Fine Chemicals) discontinuous density gradient. After centrifugation for 20 min (4° C.) , cells were collected at the 1.04/1.08 interface, washed in JMEM, brought up in DME containing 10% fetal bovine serum (FBS) (GIBCO BRL), and incubated for 30 min (37° C.) in 75-cm^2 tissue culture flasks to eliminate contaminating macrophage cells which rapidly adhere to the plastic surface. The resultant type II alveolar cell preparations were 95% viable as determined by trypan blue exclusion; purity was 93% as assessed by the presence of lamellar bodies visible with Hoffman optics at a magnification of 40 and by tannic acid staining. Analysis of total cellular DNA/well on each day of an experiment was performed in triplicate on trypsin/disease released cells using a DNA fluorometry assay (Labarca and Paigen, 1980).
# Freshly isolated type II alveolar cells were plated in 96-well plates at 20×10^3 cells/well on 500 μg/well (1.8 mg/cm^2) of gelled BMS of collagen I. Cells were cultured over 5 d with on media change performed on day three. Alveolar formation was analyzed at 24-h intervals over 5 d from photographic negatives (4×original magnification of central portion of each well) of triplicate wells. Images from negatives were transferred via video camera to an Image I imaging system (Universal Imaging Corp., West Chester, Pa.) and viewed on a color video monitor. The area of cellular structures was then determined and expressed as the mean±standard deviation. In some cases two size categories were distinguished: (a) single cells (200-300 μm^2) and (b) model alveoli (20×10^3 μm^2 or greater) with data expressed as percent of area occupied by each category.
# (§1) In alveolar inhibition studies, antibodies (50 μg/well) were incubated with gelled BMS (500 μg/well) in wells of 96-well plates for 60 min at 37° C. Unbound antibody was removed by three DME washes (200 μl/well) and then freshly isolated cells were added. Dose-response assays were performed on all antibodies. Laminin fragments and synthetic peptides (micromolar amount indicated on figures) were preincubated with freshly isolated type II alveolar cells in suspension for 30 min at 37° C. with gentle agitation every 5 min; cells together with fragment or peptide were then plated on BMS. Cell viability in the presence of each antibody, fragment, or synthetic peptide was accessed using the MTT (3-[4,5-dimethylthiazol-2-yl]-2,5-diphenyl tetrazolium bromide) assay (Chemicon International, Inc. Temecula, Calif.).
# [2] = test system: HT1080 human fibrosarcoma cells; assay: Cell adhesion studies, HT1080 cells on coated plates (Example 1); format: cell-based
# Method: (§2) Plates coated overnight (4° C.) with equimolar amounts of laminin, laminin fragment, or synthetic peptide were blocked with 1% BSA (Sigma Chemical Co.) for 4 h (4° C.) and cells were subsequently added (2×10^4 /well) in serum-free media and incubated for 60 min (37° C.) according to the method of Aumailey and Timpl (1986). Inhibition studies were carried out by preincubating cells for 30 min (37°; gentle agitation every 5 min) with equimolar amounts of soluble fragment or peptide. Cells, together with soluble inhibitor, were then added to the coated plates. After a 60-min (37° C.) incubation, plates were washed twice with PBX, fixed with 1% glutarldehyde (Electron Microscopy Service Laboratories, Westmount, N.J.), PBS, washed, stained with 0.1% crystal violet (Serra Biochemicals, Hauppauge, N.Y.), washed twice with distilled water, solubilized in 0.5% Triton X-100 (Sigma Chemical Co.), and read on an ELISA plate reader (Molecular Devices Corp., Menio Park, Calif.) equipped with a 595-nm filter.
# [3] = test system: type II alveolar cells; format: cell-based, rat
# Method: as §1
# [4] = test system: type II alveolar cells; assay: Cell adhesion studies, type II alveolar cells on coated plates (Example 1); format: cell-based, rat; settings: coating 100 μM
# Method: as §2
molecule,measurement,setting,value
"RGDS [functionally identical to RGDN, P1 fragment cell adhesion site, reference compound]",Area,[1],105 ± 24 μm^2 × 10^3
same,Inhibition of alveolar formation by soluble laminin fragment or peptide,[1],no effect on alveolar formation
FGNMGS [carboxy-terminal 6-mer of SN-peptide from trypsin digestion],Inhibition of alveolar formation by soluble laminin fragment or peptide,[1],minimal
"AASIKVAVSADR [peptide from mouse laminin A chain, antigen of ab-A[IK], reference compound]",Area,[1],98 ± 22 μm^2 × 10^3
same,Inhibition of alveolar formation by soluble laminin fragment or peptide,[1],no effect on alveolar formation
Collagen IV: Mouse collagen IV,Area (of cellular structures),[1],0.4 ± 0.2 μm^2 × 10^3
"O=C(O)CN(CCN(CC(=O)O)CC(=O)O)CC(=O)O [EDTA, reference compound]",Inhibition of HT1080 cell adhesion to SN-peptide,"[2]; cells preincubated with inhibitor, coating and inhibitor 100 μM, EDTA 2 mM",inhibited
CC[C@H](C)[C@H](NC(=O)[C@H](CO)NC(=O)[C@H](Cc1c[nH]cn1)NC(=O)[C@H](Cc1c[nH]c2ccccc12)NC(=O)[C@H](CCCNC(=N)N)NC(=O)[C@H](CC(N)=O)NC(=O)[C@H](CC(N)=O)NC(=O)[C@H](CC(N)=O)NC(=O)[C@@H](NC(=O)[C@@H](N)CO)[C@@H](C)CC)C(=O)N[C@@H](Cc1ccc(O)cc1)C(=O)N[C@H](C(=O)N[C@H](C(=O)N[C@@H](CCCNC(=N)N)C(=O)N[C@@H](Cc1ccccc1)C(=O)NCC(=O)N[C@@H](CC(N)=O)C(=O)N[C@@H](CCSC)C(=O)NCC(=O)N[C@@H](CO)C(=O)O)[C@@H](C)O)[C@@H](C)CC [SN-peptide] (H-SINNNRWHSIYITRFGNMGS-OH),IC50,[1],50 µM
same,Cell viability,[3],97±1%
"Laminin: Mouse laminin, large cross-shaped cell adhesive heterotrimer",Area (of cellular structures),[1],35 ± 3 μm^2 × 10^3
same,Alveolar formation on substrate,[1],alveoli formed only on laminin
same,Percent cell attachment,"[2]; HT1080 cells, substrate coated at 35 μM, mean ± SD",80 ± 0.02%
same,Adhesion of type II alveolar cells to coated substrate,[4],Adhesion
KQNCLSSRASFRGCVRNLRLSR [reference compound],Area,[1],110 ± 19 μm^2 × 10^3
same,Inhibition of alveolar formation by soluble laminin fragment or peptide,[1],no effect on alveolar formation
"AASVVIAKSADR [scrambled IKVAV control peptide, reference compound]",Area,[1],100 ± 18 μm^2 × 10^3
same,Inhibition of alveolar formation by soluble laminin fragment or peptide,[1],no effect on alveolar formation
CC[C@H](C)[C@H](NC(=O)[C@@H](N)CO)C(=O)N[C@@H](CC(N)=O)C(=O)N[C@@H](CC(N)=O)C(=O)N[C@@H](CC(N)=O)C(=O)N[C@@H](CCCNC(=N)N)C(=O)O [SINNNR] (H-SINNNR-OH),IC50,[1],68 µM
WHSIYITR [middle 8-mer of SN-peptide from trypsin digestion],Inhibition of alveolar formation by soluble laminin fragment or peptide,[1],partial
"collagen I: Rat tail collagen I, negative control substrate",Alveolar formation on substrate,[1],completely ineffective
"Entactin: Mouse entactin purchased from Upstate Biotechnology (protein, UniProt P10493 29-1245, looked up) Nidogen-1: LNRQELFPFGPGQGDLELEAGDDVVSPSLELIGELSFYDRTDITSVYVTTNGIIAMSEPPATEYHPGTFPPSFGSVAPFLADLDTTDGLGNVYYREDLSPFIIQMAAEYVQRGFPEVSFQPTSVVVVTWESVAPYGGPSSSPAEEGKRNTFQAVLASSNSSSYAIFLYPEDGLQFFTTFSKKDESQVPAVVGFSKGLVGFLWKSNGAYNIFANDRESIENLAKSSNAGHQGVWVFEIGSPATAKGVVSADVNLDLDDDGADYEDEDYDLVTSHLGLEDVATPSPSHSPRRGYPDPHNVPRILSPGYEATERPRGVPTERTRSFQLPAERFPQHHPQVIDVDEVEETGVVFSYNTGSQQTCANNRHQCSVHAECRDYATGFCCRCVANYTGNGRQCVAEGSPQRVNGKVKGRIFVGSSQVPVVFENTDLHSYVVMNHGRSYTAISTIPETVGYSLLPLAPIGGIIGWMFAVEQDGFKNGFSITGGEFTRQAEVTFLGHPGKLVLKQQFSGIDEHGHLTISTELEGRVPQIPYGASVHIEPYTELYHYSSSVITSSSTREYTVMEPDQDGAAPSHTHIYQWRQTITFQECAHDDARPALPSTQQLSVDSVFVLYNKEERILRYALSNSIGPVRDGSPDALQNPCYIGTHGCDSNAACRPGPGTQFTCECSIGFRGDGQTCYDIDECSEQPSRCGNHAVCNNLPGTFRCECVEGYHFSDRGTCVAAEDQRPINYCETGLHNCDIPQRAQCIYMGGSSYTCSCLPGFSGDGRACRDVDECQHSRCHPDAFCYNTPGSFTCQCKPGYQGDGFRCMPGEVSKTRCQLEREHILGAAGGADAQRPTLQGMFVPQCDEYGHYVPTQCHHSTGYCWCVDRDGRELEGSRTPPGMRPPCLSTVAPPIHQGPVVPTAVIPLPPGTHLLFAQTGKIERLPLERNTMKKTEAKAFLHIPAKVIIGLAFDCVDKVVYWTDISEPSIGRASLHGGEPTTIIRQDLGSPEGIALDHLGRTIFWTDSQLDRIEVAKMDGTQRRVLFDTGLVNPRGIVTDPVRGNLYWTDWNRDNPKIETSHMDGTNRRILAQDNLGLPNGLTFDAFSSQLCWVDAGTHRAECLNPAQPGRRKVLEGLQYPFAVTSYGKNLYYTDWKTNSVIAMDLAISKEMDTFHPHKQTRLYGITIALSQCPQGHNYCSVNNGGCTHLCLPTPGSRTCRCPDNTLGVDCIERK",Area (of cellular structures),[1],1 ± 0.5 μm^2 × 10^3
